In patent US8357377B2, “Cyclodextrin-based materials, compositions and uses related thereto” (priority 2002, dated 2013):

Test: Rat PVA sponge model, morphological analysis (Masson's Trichrome sections)
Set-up: species or system Harlan Sprague-Dawley rats
Details: in vivo
Protocol: Six small incisions (0.5 cm) were performed and polyvinyl alcohol (PVA, M-PACTO®) sponges were subcutaneously implanted on the ventral side of male Harlan Sprague-Dawley rats.
Four days after implantation, test and control materials were diluted with vPBS and liquid collagen (Cohesion Technologies®) or 58 kD Cyclodextrin (CD)-Adamantane matrix as described above and injected into PVA sponges. Final collagen formulation was 1.8 mg/mL, pHed with NaOH, and brought up to volume with vPBS. Final 58 kD Cyclodextrin (CD)-Adamantane matrix formulation was 100 mg/mL. 200 μL total volume of test reagent was delivered to each sponge. Animals were sacrificed and sponges were removed 2 days after injections. Sponges were cut into three pieces and the majority of the sponge (˜70-80%) was frozen in liquid nitrogen and stored at −80° C. for QPCR and QRT-PCR analysis. A small portion of the sponge was fixed in 4% PFA at 4° C. for 18 hours, paraffin embedded, and sectioned (5 μm). Sections were stained using Masson's Trichrome (cells=black, vasculature=red, and collagen=blue) and Hematoxylin-Eosin methods. Tissue sections were analyzed microscopically for gross histology by two separate investigators.
5 μm, Masson's Trichrome stained paraffin sections were analyzed by two separate observers. Sponge characteristics were qualitatively evaluated by the following criteria: Minimal<Light<Moderate<Heavy<Severe for all categories except Capsule Size. The following criteria were used for evaluation of Capsule Size: Thin<Moderate<Thick<Very Thick.

Substance: Collagen
- Capsule Size: Thin
- Immune Response: Minimal
- Immune response (gross histological examination): minimal immune response
